Assay results: patent US20260325533A1, “CDK INHIBITOR COMPOUNDS” (ALEKSIA THERAPEUTICS, INC., priority 2023, published 2026)
pIC50: −log10 of the molar value. Where two headings read alike, the source gives them in different places. Each block holds one molecule with its values, some of them ahead of it.

Assays:
Format in all cases: biochemical
CDK4/CCND3 = CDK4/CCND3 (Homo sapiens, UniProt P11802); experiment: CDK4 homogeneous time-resolved fluorescence (HTRF) kinase assay; settings: CDK4/CCND
Sequence of CDK4/CCND3 (P11802 whole entry): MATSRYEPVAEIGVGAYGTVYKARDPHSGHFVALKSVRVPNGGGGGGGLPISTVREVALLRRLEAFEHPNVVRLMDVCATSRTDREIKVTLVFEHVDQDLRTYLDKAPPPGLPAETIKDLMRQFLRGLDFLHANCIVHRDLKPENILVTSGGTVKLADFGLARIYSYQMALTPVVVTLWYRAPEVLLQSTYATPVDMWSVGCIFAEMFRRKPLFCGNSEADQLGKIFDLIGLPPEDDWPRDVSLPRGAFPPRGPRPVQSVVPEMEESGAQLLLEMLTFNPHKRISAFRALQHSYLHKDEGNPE
Sequence of CDK4/CCND3 (P30281 whole entry partner): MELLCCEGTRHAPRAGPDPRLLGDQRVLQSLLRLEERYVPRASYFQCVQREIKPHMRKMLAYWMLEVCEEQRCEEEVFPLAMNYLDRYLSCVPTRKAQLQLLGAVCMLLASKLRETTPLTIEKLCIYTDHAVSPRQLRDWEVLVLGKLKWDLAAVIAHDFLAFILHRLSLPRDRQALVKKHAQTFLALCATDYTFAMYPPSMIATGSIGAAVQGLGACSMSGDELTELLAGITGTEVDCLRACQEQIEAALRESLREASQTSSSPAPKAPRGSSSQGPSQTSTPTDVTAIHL
Procedure, shortened: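 CDK4/CCND3 at 1.5 nM was preincubated with compound for 20 min at 23 °C, then reacted for 60 min with 1 mM ATP and 50 nM ULight-4E-BP1 (Thr37/46) peptide. The reaction was stopped with EDTA, and phosphorylation was read by HTRF with a Eu-anti-phospho antibody. IC50 values came from 11-point half-log titrations, typically from 10 μM.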

CDK1/CCNB1 = CDK1/CCNB1 (Homo sapiens, UniProt P06493); experiment: CDK1 homogeneous time-resolved fluorescence (HTRF) kinase assay; settings: CDK1/CCNB
Sequence of CDK1/CCNB1 (P06493 whole entry): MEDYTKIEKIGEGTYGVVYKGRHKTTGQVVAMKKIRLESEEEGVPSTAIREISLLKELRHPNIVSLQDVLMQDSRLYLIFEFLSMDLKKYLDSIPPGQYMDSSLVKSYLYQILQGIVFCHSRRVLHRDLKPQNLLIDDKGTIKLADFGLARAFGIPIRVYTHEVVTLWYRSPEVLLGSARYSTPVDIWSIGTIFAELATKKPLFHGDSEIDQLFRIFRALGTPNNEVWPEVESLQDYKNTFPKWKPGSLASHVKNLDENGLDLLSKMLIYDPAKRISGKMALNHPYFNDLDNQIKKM
Sequence of CDK1/CCNB1 (P14635 whole entry partner): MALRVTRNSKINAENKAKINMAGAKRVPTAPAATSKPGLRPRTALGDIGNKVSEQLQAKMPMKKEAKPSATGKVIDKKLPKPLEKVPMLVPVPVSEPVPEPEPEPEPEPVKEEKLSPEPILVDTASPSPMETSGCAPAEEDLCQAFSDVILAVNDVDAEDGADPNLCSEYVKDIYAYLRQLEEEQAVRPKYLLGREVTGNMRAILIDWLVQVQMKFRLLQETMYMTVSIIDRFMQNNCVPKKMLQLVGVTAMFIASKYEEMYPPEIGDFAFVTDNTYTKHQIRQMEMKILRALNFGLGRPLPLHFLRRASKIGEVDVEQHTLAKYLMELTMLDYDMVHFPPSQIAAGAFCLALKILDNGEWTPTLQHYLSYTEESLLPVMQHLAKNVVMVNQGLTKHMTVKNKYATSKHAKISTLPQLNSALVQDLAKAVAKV
Procedure, shortened: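 Kinase activity is measured as Lance signal (665 nm, or 665/615 nm ratio) from europium-labelled anti-phospho-Thr37/46 antibody binding ULight-4E-BP1 peptide. Reactions contain 0.5 nM enzyme, 1 mM ATP, 1% DMSO and run 60 min at 23 °C before EDTA quench.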

CDK2/CCNE1 = CDK2/CCNE1 (Homo sapiens, UniProt P24941); experiment: CDK2 homogeneous time-resolved fluorescence (HTRF) kinase assay; settings: CDK2/CCNE
Procedure, shortened: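 3 nM CDK2/CCNE1 was preincubated with compound for 20 min at 23 °C in HEPES buffer (pH not stated), then reacted 60 min with 1 mM ATP and 50 nM ULight-4E-BP1 (Thr37/46) peptide. After EDTA stop, Eu-anti-phospho-4E-BP1 antibody (2 nM) was added for 60 min and TR-FRET read at 665 nm.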

CDK6/CCND1 = CDK6/CCND1 (Homo sapiens, UniProt Q00534); experiment: CDK6 homogeneous time-resolved fluorescence (HTRF) kinase assay; settings: CDK6/CCND
Sequence of CDK6/CCND1 (Q00534 whole entry): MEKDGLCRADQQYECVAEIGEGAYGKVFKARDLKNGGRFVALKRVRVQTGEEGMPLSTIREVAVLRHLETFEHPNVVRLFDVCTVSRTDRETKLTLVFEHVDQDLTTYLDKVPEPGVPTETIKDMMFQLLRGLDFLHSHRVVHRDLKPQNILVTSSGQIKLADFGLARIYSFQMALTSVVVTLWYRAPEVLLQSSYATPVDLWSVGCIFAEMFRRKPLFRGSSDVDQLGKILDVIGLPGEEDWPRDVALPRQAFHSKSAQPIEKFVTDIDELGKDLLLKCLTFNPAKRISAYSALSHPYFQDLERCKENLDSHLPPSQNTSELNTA
Sequence of CDK6/CCND1 (P24385 whole entry partner): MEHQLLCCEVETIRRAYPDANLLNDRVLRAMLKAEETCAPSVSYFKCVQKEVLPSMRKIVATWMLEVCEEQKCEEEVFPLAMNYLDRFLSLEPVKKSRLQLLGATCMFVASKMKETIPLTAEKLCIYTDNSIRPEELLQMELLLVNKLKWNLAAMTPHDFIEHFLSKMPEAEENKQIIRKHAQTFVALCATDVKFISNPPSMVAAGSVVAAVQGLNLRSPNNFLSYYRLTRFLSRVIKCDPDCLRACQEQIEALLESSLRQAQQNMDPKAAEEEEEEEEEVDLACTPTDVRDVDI
Procedure, shortened: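 Enzyme pre-incubated 20 min at 23 °C with compound, then reacted 60 min at 23 °C with 1 mM ATP and 50 nM ULight-4E-BP1 (Thr37/46) peptide; 1 nM enzyme, 1% DMSO. EDTA-stopped, Eu-anti-phospho antibody TR-FRET read (665 nm or 665/615 ratio); 11-point half-log titration from 10 μM gave IC50.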

[1] = >250 nM, read-out: CDK4/CCND IC50, >250 nM
[2] = >250 nM, read-out: CDK1/CCNB IC50 >250 nM
[3] = <25 nM, read-out: CDK2/CCNE IC50, <25 nM
[4] = >250 nM, 1 mM ATP, read-out: CDK6/CCND IC50, >250 nM
[5] = x = IC50 25-250 nM, read-out: CDK4/CCND IC50 (25-250 nM)
[6] = x = IC50 >250 nM, read-out: CDK1/CCNB IC50 (>250 nM column)
[7] = x = IC50 <25 nM, read-out: CDK2/CCNE IC50 (<25 nM)
[8] = x = IC50 25-250 nM, read-out: CDK6/CCND IC50 (25-250 nM)
[9] = x = IC50 >250 nM, read-out: CDK4/CCND IC50 (>250 nM column)
[10] = x = IC50 25-250 nM, read-out: CDK1/CCNB IC50 (25-250 nM)
[11] = x = IC50 >250 nM, read-out: CDK6/CCND IC50 (>250 nM column)
[12] = 25-250 nM, read-out: CDK1/CCNB IC50, 25-250 nM
[13] = >250 nM marked x, read-out: CDK1/CCNB IC50 >250 nM
[14] = x = IC50 25-250 nM, read-out: CDK2/CCNE IC50 (25-250 nM)

SMILES: CCS(=N)(=O)c1ccc(Nc2cc3c(-c4ccc5c(cnn5CC(O)(C(F)(F)F)C(F)(F)F)c4C)nccc3cn2)cc1 (racemic) [Ex 473, ethyl(imino)(4-((5-(4-methyl-1-(3,3,3-trifluoro-2-hydroxy-2-(trifluoromethyl)propyl)-1H-indazol-5-yl)-2,6-naphthyridin-3-yl)amino)phenyl)-l6-sulfanone]
pIC50 (CDK4/CCND3; [5]): 6.60 to 7.60 | pIC50 (CDK1/CCNB1; [6]): < 6.60 | pIC50 (CDK2/CCNE1; [7]): > 7.60 | pIC50 (CDK6/CCND1; [8]): 6.60 to 7.60

SMILES: CCC1(CC)C(=O)Nc2cc(C#Cc3nccc4cnc(Nc5ccc(S(=N)(=O)CC)cc5)cc34)ccc21 (single isomer, unassigned) [Ex 411, 3,3-diethyl-6-((7-((4-(ethylsulfonimidoyl)phenyl)amino)-2,6-naphthyridin-1-yl)ethynyl)indolin-2-one]
pIC50 (CDK4/CCND3; [9]): < 6.60 | pIC50 (CDK1/CCNB1; [10]): 6.60 to 7.60 | pIC50 (CDK2/CCNE1; [7]): > 7.60 | pIC50 (CDK6/CCND1; [11]): < 6.60

SMILES: CN1CCC(c2nccc3cnc(Nc4ccc(S(C)(=O)=O)cc4)cc23)C1 (racemic) [Ex 229, 5-(1-methylpyrrolidin-3-yl)-N-(4-(methylsulfonyl)phenyl)-2,6-naphthyridin-3-amine]
pIC50 (CDK4/CCND3; >250 nM marked x, read-out: CDK4/CCND IC50 >250 nM): < 6.60 | pIC50 (CDK1/CCNB1; [13]): < 6.60 | pIC50 (CDK2/CCNE1; >250 nM marked x, read-out: CDK2/CCNE IC50 >250 nM): < 6.60 | pIC50 (CDK6/CCND1; >250 nM marked x, read-out: CDK6/CCND IC50 >250 nM): < 6.60

SMILES: Cc1cnc(F)cc1C#Cc1nccc2cnc(Nc3ccc(S(C)(=O)=O)cc3)cc12 [Ex 509, 5-((2-fluoro-5-methylpyridin-4-yl)ethynyl)-N-(4-(methylsulfonyl)phenyl)-2,6-naphthyridin-3-amine]
pIC50 (CDK4/CCND3; [9]): < 6.60 | pIC50 (CDK1/CCNB1; [6]): < 6.60 | pIC50 (CDK2/CCNE1; [14]): 6.60 to 7.60 | pIC50 (CDK6/CCND1; [11]): < 6.60

SMILES: CS(=O)(=O)c1ccc(Nc2cc3c(C#Cc4ccc5c(c4)NC(=O)C54CC4)nccc3cn2)cc1 [Ex 445, 6'-((7-((4-(methylsulfonyl)phenyl)amino)-2,6-naphthyridin-1-yl)ethynyl)spiro[cyclopropane-1,3'-indolin]-2'-one]
pIC50 (CDK4/CCND3; [5]): 6.60 to 7.60 | pIC50 (CDK1/CCNB1; [10]): 6.60 to 7.60 | pIC50 (CDK2/CCNE1; [7]): > 7.60 | pIC50 (CDK6/CCND1; [8]): 6.60 to 7.60

SMILES: CS(=O)(=O)c1ccc(Nc2cc3c(C#Cc4c[nH]c5ncccc45)nccc3cn2)cc1 [Ex 522, 5-((1H-pyrrolo[2,3-b]pyridin-3-yl)ethynyl)-N-(4-(methylsulfonyl)phenyl)-2,6-naphthyridin-3-amine]
pIC50 (CDK4/CCND3; [9]): < 6.60 | pIC50 (CDK1/CCNB1; [6]): < 6.60 | pIC50 (CDK2/CCNE1; [14]): 6.60 to 7.60 | pIC50 (CDK6/CCND1; [11]): < 6.60

SMILES: CS(=O)(=O)c1ccc(Nc2cc3c(C#CC4CC4)nccc3cn2)cc1 [Ex 214, 5-(cyclopropylethynyl)-N-(4-(methylsulfonyl)phenyl)-2,6-naphthyridin-3-amine]
pIC50 (CDK4/CCND3; 25-250 nM marked x, read-out: CDK4/CCND IC50 25-250 nM): 6.60 to 7.60 | pIC50 (CDK1/CCNB1; [13]): < 6.60 | pIC50 (CDK2/CCNE1; <25 nM, read-out: CDK2/CCNE IC50 <25 nM): > 7.60 | pIC50 (CDK6/CCND1; 25-250 nM marked x, read-out: CDK6/CCND IC50 25-250 nM): 6.60 to 7.60

Further lines, results first:

pIC50 (CDK4/CCND3; [1]): < 6.60 | pIC50 (CDK1/CCNB1; [2]): < 6.60 | pIC50 (CDK2/CCNE1; [3]): > 7.60 | pIC50 (CDK6/CCND1; [4]): < 6.60
SMILES: COc1cc(NS(=O)(=O)c2ccc(Nc3cc4c(-c5ccc6c(cnn6CC(C)(C)O)c5C)nccc4cn3)cc2)nc(OC)c1 [Ex 814, N-(4,6-dimethoxypyridin-2-yl)-4-((5-(1-(2-hydroxy-2-methylpropyl)-4-methyl-1H-indazol-5-yl)-2,6-naphthyridin-3-yl)amino)benzenesulfonamide]

pIC50 (CDK4/CCND3; [1]): < 6.60 | pIC50 (CDK1/CCNB1; [2]): < 6.60 | pIC50 (CDK2/CCNE1; >250 nM, read-out: CDK2/CCNE IC50, >250 nM): < 6.60 | pIC50 (CDK6/CCND1; [4]): < 6.60
SMILES: C[C@@H]1CN(C)CCN1c1cc(Nc2cc3c(C#Cc4ccc(=O)[nH]n4)nccc3cn2)cnc1O [Ex 840, (R)-6-((7-((5-(2,4-dimethylpiperazin-1-yl)-6-hydroxypyridin-3-yl)amino)-2,6-naphthyridin-1-yl)ethynyl)pyridazin-3(2H)-one]

pIC50 (CDK4/CCND3; 25-250 nM, read-out: CDK4/CCND IC50, 25-250 nM): 6.60 to 7.60 | pIC50 (CDK1/CCNB1; [12]): 6.60 to 7.60 | pIC50 (CDK2/CCNE1; [3]): > 7.60 | pIC50 (CDK6/CCND1; 25-250 nM, 1 mM ATP, read-out: CDK6/CCND IC50, 25-250 nM): 6.60 to 7.60
SMILES: CC(=O)NC1CCN(c2ccc(Nc3cc4c(-c5ccc6c(cnn6CC(C)(C)O)c5C)nccc4cn3)cc2S(C)(=O)=O)C1 (centres unmarked) [Example 930, N-(1-(4-((5-(1-(2-hydroxy-2-methylpropyl)-4-methyl-1H-indazol-5-yl)-2,6-naphthyridin-3-yl)amino)-2-(methylsulfonyl)phenyl)pyrrolidin-3-yl)acetamide]

pIC50 (CDK4/CCND3; [9]): < 6.60 | pIC50 (CDK1/CCNB1; [6]): < 6.60 | pIC50 (CDK2/CCNE1; [14]): 6.60 to 7.60 | pIC50 (CDK6/CCND1; [11]): < 6.60
SMILES: CS(=O)(=O)c1ccc(Nc2cc3c(C#Cc4ccc(O)cn4)nccc3cn2)cc1 [Ex 627, 6-((7-((4-(methylsulfonyl)phenyl)amino)-2,6-naphthyridin-1-yl)ethynyl)pyridin-3-ol]

pIC50 (CDK4/CCND3; [9]): < 6.60 | pIC50 (CDK1/CCNB1; [10]): 6.60 to 7.60 | pIC50 (CDK2/CCNE1; [7]): > 7.60 | pIC50 (CDK6/CCND1; [11]): < 6.60
SMILES: COCC1(COC)C(=O)Nc2cc(C#Cc3nccc4cnc(Nc5ccc(S(C)(=O)=O)cc5)cc34)ccc21 [Example 360, 3,3-bis(methoxymethyl)-6-((7-((4-(methylsulfonyl)phenyl)amino)-2,6-naphthyridin-1-yl)ethynyl)indolin-2-one]

pIC50 (CDK4/CCND3; [1]): < 6.60 | pIC50 (CDK1/CCNB1; [2]): < 6.60 | pIC50 (CDK2/CCNE1; [3]): > 7.60 | pIC50 (CDK6/CCND1; [4]): < 6.60
SMILES: CC[C@H](C)NS(=O)(=O)c1ccc(Nc2cc3c(-c4ccc5c(cnn5CC(C)(C)O)c4C)nccc3cn2)cc1 [Ex 722, (S)-N-(sec-butyl)-4-((5-(1-(2-hydroxy-2-methylpropyl)-4-methyl-1H-indazol-5-yl)-2,6-naphthyridin-3-yl)amino)benzenesulfonamide]

pIC50 (CDK4/CCND3; [9]): < 6.60 | pIC50 (CDK1/CCNB1; [10]): 6.60 to 7.60 | pIC50 (CDK2/CCNE1; [7]): > 7.60 | pIC50 (CDK6/CCND1; [8]): 6.60 to 7.60
SMILES: CC1(O)C=C(c2nccc3cnc(Nc4ccc(S(C)(=O)=O)cc4)cc23)CCC1 (single isomer, unassigned) [Example 625, 1-methyl-3-(7-((4-(methylsulfonyl)phenyl)amino)-2,6-naphthyridin-1-yl)cyclohex-2-en-1-ol]

pIC50 (CDK4/CCND3; [9]): < 6.60 | pIC50 (CDK1/CCNB1; [6]): < 6.60 | pIC50 (CDK2/CCNE1; [14]): 6.60 to 7.60 | pIC50 (CDK6/CCND1; [11]): < 6.60
SMILES: CS(=O)(=O)c1ccc(Nc2cc3c(C#Cc4cc(Cl)n[nH]c4=O)nccc3cn2)cc1 [Ex 612, 6-chloro-4-((7-((4-(methylsulfonyl)phenyl)amino)-2,6-naphthyridin-1-yl)ethynyl)pyridazin-3(2H)-one]

pIC50 (CDK4/CCND3; [9]): < 6.60 | pIC50 (CDK1/CCNB1; [6]): < 6.60 | pIC50 (CDK2/CCNE1; [7]): > 7.60 | pIC50 (CDK6/CCND1; [8]): 6.60 to 7.60
SMILES: CC(O)CN1CCC(C#Cc2nccc3cnc(Nc4ccc(S(C)(=O)=O)cc4)cc23)CC1 (single isomer, unassigned) [Ex 607, 1-(4-((7-((4-(methylsulfonyl)phenyl)amino)-2,6-naphthyridin-1-yl)ethynyl)piperidin-1-yl)propan-2-ol]

pIC50 (CDK4/CCND3; [1]): < 6.60 | pIC50 (CDK1/CCNB1; [12]): 6.60 to 7.60 | pIC50 (CDK2/CCNE1; [3]): > 7.60 | pIC50 (CDK6/CCND1; [4]): < 6.60
SMILES: Cc1c(-c2nccc3cnc(Nc4ccc(S(=O)(=O)Nc5cccc(C(F)(F)F)n5)cc4)cc23)ccc2c1cnn2CC(C)(C)O [Ex 815, 4-((5-(1-(2-hydroxy-2-methylpropyl)-4-methyl-1H-indazol-5-yl)-2,6-naphthyridin-3-yl)amino)-N-(6-(trifluoromethyl)pyridin-2-yl)benzenesulfonamide]
